Source: patent publication US20150010933A1, “Novel Screening Methods” (The Trustees of the University of Pennsylvania, priority 2012, published 2015)

Key:
Format in all cases: biochemical
[1] = target: ATP synthesis activity of M. smegmatis membranes; assay: ATP synthesis assay with M. smegmatis membranes (luciferase/luciferin luminescence, 384 well plate); conditions: 10 μg/ml M. smegmatis membrane, 1 mM NADH, 25 μM ADP, 10 mM K-Pi, pH 7.0, total volume 20 μL; read-out: IC50, ATP synthesis activity normalized to the positive control
[2] = tested on: ΔpH across M. smegmatis membranes; assay: ΔpH across the membranes monitored with pH sensitive fluorescent dye ACMA; conditions: 1 μM ACMA, 10 μg/ml M. smegmatis membrane, initiated with 1 mM NADH, pH 7.0
Description: FIG. 11 is a graph illustrating the effect of TMC207 on ΔpH across the membranes. ΔpH was monitored by using a pH sensitive fluorescent dye 9-amino-6-chloro-2-methoxyaridine (ACMA). The reactions contained 1 μM ACMA, 10 μg/ml M. smegmatis membrane in 5 mM Hepes/2 mM MgCl2 buffer (pH 7.0). The reaction was initiated by addition of 1 mM NADH (open symbols) and NADH was omitted in negative controls (closed symbols). Fluorescence was measured by a plate reader with 420 nm for excitation and 510 nm for emission wavelength.

[3] = tested on: NADH oxidase activity of M. smegmatis membranes; assay: NADH oxidase activity assay with M. smegmatis membranes; conditions: 0.2 mM NADH, 10 μg/ml membrane, pH 7.0
Description: FIG. 10 is a graph illustrating the effect of TMC207 on the NADH oxidase activity of M. smegmatis membranes. The assay was carried out in the presence of various concentrations of TMC207. The reactions contained 0.2 mM NADH and 10 μg/ml membrane in 50 mM Hepes/2 mM MgCl2 (pH 7.0) buffer.

SMILES: COc1nc2ccc(Br)cc2cc1[C@@H](c1ccccc1)[C@@](O)(CCN(C)C)c1cccc2ccccc12 [TMC207, (1R,2S)-1-(6-bromo-2-methoxy-3-quinolyl)-4-dimethylamino-2-(1-naphthyl)-1-phenyl-butan-2-ol]
- IC50 [1]: 147 pM
- effect on ΔpH across the membrane [2]: did not affect
- inhibition of NADH oxidase activity ([3]; at 10 μM): did not inhibit
- inhibition of NADH oxidase activity ([3]; at only high concentrations): marginal inhibition
